Source: BindingDB's records for doi:10.1016/j.bioorg.2015.02.008 (University of Strasburg, 2015)

Biological target: T1, 1-deoxy-D-xylulose 5-phosphate reductoisomerase (Escherichia coli (strain K12), UniProt P45568)
T1 sequence (P45568 whole entry): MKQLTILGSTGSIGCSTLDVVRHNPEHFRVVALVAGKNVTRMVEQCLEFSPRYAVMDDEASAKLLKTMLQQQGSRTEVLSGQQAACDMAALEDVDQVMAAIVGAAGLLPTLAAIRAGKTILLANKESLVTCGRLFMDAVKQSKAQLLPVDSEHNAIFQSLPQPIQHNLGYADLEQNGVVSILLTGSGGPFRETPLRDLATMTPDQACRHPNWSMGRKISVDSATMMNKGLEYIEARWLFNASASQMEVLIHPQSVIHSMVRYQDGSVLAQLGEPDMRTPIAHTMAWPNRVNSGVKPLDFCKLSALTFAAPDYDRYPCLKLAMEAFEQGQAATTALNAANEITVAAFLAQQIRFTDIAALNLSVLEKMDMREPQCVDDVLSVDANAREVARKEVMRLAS
Assay: DXR Inhibition Assay
Procedure: H-DXR was pre-incubated during 2 min in the presence of the inhibitors at different concentrations and DXP (480 µM). NADPH (160 µM final concentration) was then added to measure the residual activity. The flavonoids are poorly soluble in water. Flavonoids solutions at different concentrations were prepared in DMSO by serial dilutions from 100 mM stock solutions. […] The inhibition mechanism of myricetin was studied by preincubating H-DXR with DXP at varied concentrations (96 480 µM) and fixed concentrations of myricetin (0.5, 1 and 2 µM). The enzymatic reaction was initiated by NADPH (final concentration160 µM). Fosmidomycin was used as a positive reference.

`O=c1cc(-c2ccc(O)c(O)c2)oc2cc(O)cc(O)c12` [2-(3,4-dihydroxyphenyl)-5,7-dihydroxy-4H-chromen-4-one] showed an IC50 of 3400 nM.

`O=c1cc(-c2ccccc2)oc2cc(O)c(O)c(O)c12` showed an IC50 of 2200 nM.

Work on `O=c1c(O)c(-c2ccc(O)c(O)c2)oc2cc(O)cc(O)c12` [2-(3,4-dihydroxyphenyl)-3,5,7-trihydroxy-chromone;hydrate] yielded an IC50 of 1900 nM.

Work on `O=c1c(O)c(-c2cc(O)c(O)c(O)c2)oc2cc(O)cc(O)c12` yielded an IC50 of 1500 nM.

With `O=c1c(O)c(-c2ccc(O)c(O)c2)oc2cc(O)ccc12` [2-(3,4-dihydroxyphenyl)-3,7-dihydroxy-chromen-4-one] the IC50 was 3500 nM.
